Laboratory results as given in the supplement of paper PMC10949913.

What was measured:
Conditions in all cases: 48 h
CU-ACC2 = test: area under concentration-response curve (viability) (AUC (a.u.)); higher = less active
Method in brief: (§1)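 Library compounds were tested at 11 concentrations against three adrenocortical carcinoma cell lines in 1,536-well plates. CellTiter-Glo luminescence was read after 48 h and normalised per plate to vehicle and empty-well controls. Only inhibitory or non-responding curve classes from fitted concentration-response curves contributed AC50 and area under the curve.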

CU-ACC1 = test: as above
Method in brief: as §1

NCI-H295R [1] = test: as above
Method in brief: as §1

NCI-H295R [2] = test: AC50 viability; higher = less potent
Method in brief: as §1

Row | Compound | area under concentration-response curve (CU-ACC2) | area under concentration-response curve (CU-ACC1) | area under concentration-response curve (NCI-H295R [1]) | AC50 viability (NCI-H295R [2]) [µM]
1 | COc1ccc(-c2oc3ncnc(N)c3c2-c2ccc(NC(=O)Nc3cc(C(F)(F)F)ccc3F)cc2)cc1 | 518 | 469 | 471 | 13.2
2 | N#Cc1c(NC(=O)c2cccc3ccccc23)sc2c1CCCC2 | 551 | 480 | 458 | 0.372
3 | CCOC(=O)[C@H](CCc1ccccc1)N[C@@H](C)C(=O)N1CCC[C@H]1C(=O)O | 458 | 300 | 417 | 10.5
4 | Cc1cc2c(F)c(Oc3ncnn4cc(OCC(C)OC(=O)C(C)N)c(C)c34)ccc2[nH]1 (centres undefined) | 468 | 473 | 481 | 18.6
5 | COc1cc(C(N)=O)ccc1NC(=O)[C@@H]1N[C@@H](CC(C)(C)C)[C@@]2(C(=O)Nc3cc(Cl)ccc32)[C@H]1c1cccc(Cl)c1F | 604 | 495 | 536 | 20.9
6 | CN1c2ccccc2C(=O)N2CCc3c([nH]c4ccccc34)C21 (centres undefined) | 633 | 506 | 512 | 2.63
7 | C[C@H]1CCC/C=C/C2C[C@H](O)C[C@H]2[C@H](O)/C=C/C(=O)O1 (some centres undefined) | 389 | 390 | 346 | 0.263
8 | COc1ccc(/C=C\c2cc(OC)c(OC)c(OC)c2)cc1O | 474 | 505 | 333 | 0.00934
9 | CO[C@H]1C[C@H]2OC[C@@]2(OC(C)=O)[C@H]3[C@H](OC(=O)C4=CC=CC=C4)[C@]5(O)C[C@H](OC(=O)[C@H](O)[C@@H](NC(=O)OC(C)(C)C)C6=CC=CC=C6)/C(=C(/[C@@H](OC)C(=O)[C@]13C)C5(C)C)C | 565 | 520 | 382 | 0.934
10 | COc1ccccc1C(=O)Nc1cc2c(cc1N1CCCCC1)n(C)c(=O)n2C | 434 | 426 | 422 | 16.6
11 | CC(=O)c1cnc2ccc(-c3cc(Cl)c(O)c(Cl)c3)nc2c1N[C@H]1CC[C@H](CN(C)C)CC1 | 433 | 491 | 373 | 0.959
12 | COc1cc([C@@H]2c3cc4c(cc3[C@H](O)[C@H]3COC(=O)[C@@H]23)OCO4)cc(OC)c1OC | 467 | 504 | 453 | 0.934
13 | COc1cc(OC)c(/C=C/[S+](=O)([O-])Cc2ccc(OC)c(NCC(=O)[O-])c2)c(OC)c1 | 479 | 464 | 386 | 0.059
14 | O=C(Nc1cccc(C(F)(F)F)c1)Nc1cc([S+](=O)([O-])NC2CC2)ccc1-c1ccsc1 | 568 | 525 | 514 | 23.5
15 | COc1ccc(-n2c(C)c([N+](=O)[O-])c3ccc(O)cc32)cc1 | 615 | 519 | 549 | 14.8
16 | COC(=O)Nc1nc2cc(C(=O)c3ccccc3)ccc2[nH]1 | 475 | 440 | 412 | 0.417
17 | c1ccc(CNc2nc(N3CCOc4ccccc43)nc3c2CCCC3)cc1 | 528 | 449 | 481 | 20.9
18 | CC(C)NC(=O)[C@H]1CC[C@@H](n2c(NC(=O)c3ccc(F)cc3)nc3ccc(CN4CCC(C(C)(C)O)CC4)cc32)CC1 | 626 | 465 | 612 | 9.11
19 | CC(C)(O)[C@H]1CC[C@H](Nc2ccc3ncc(-c4cccc(C(F)(F)F)c4)n3n2)CC1 | 490 | 434 | 460 | 11.8
20 | COc1ccc(-n2c(SCCCN3C(=O)c4cccc5cccc(c45)C3=O)nnc2-c2ccncc2)cc1 | 406 | 422 | 406 | 3.32
21 | Cc1cccc(/C=N/Nc2cc(N3CCOCC3)nc(OCCc3ccccn3)n2)c1 | 573 | 531 | 518 | 18.6
22 | COc1cc([C@@H]2c3cc4c(cc3[C@@H](O[C@@H]3O[C@@H]5CO[C@@H](c6cccs6)O[C@H]5[C@H](O)[C@H]3O)[C@H]3COC(=O)[C@H]23)OCO4)cc(OC)c1O | 608 | 509 | 532 | 11.8
23 | COc1ccc(-c2ccc3c(N4CCOCC4)nc(N4C[C@@H](C)O[C@@H](C)C4)nc3n2)cc1CO | 469 | 464 | 468 | 0.934

Row | Compound | area under concentration-response curve (CU-ACC2) | area under concentration-response curve (CU-ACC1) | area under concentration-response curve (NCI-H295R [1]) | AC50 viability (NCI-H295R [2]) [µM]
24 | O=C\1NC(=O)\C(=C1C2=C[NH]C3=C2C=CC=C3)C4=C[NH]C5=C4C=CC=C5 | 562 | 504 | 510 | 16.6
25 | COc1ccc2c(c1OC)C(=O)O[C@H]2[C@H]1c2c(cc3c(c2OC)OCO3)CCN1C | 608 | 493 | 519 | 20.9
26 | COc1ccc(OC)c(-c2nnc3ccc(-c4ccc(OC)c(O[C@@H]5CCOC5)c4)nn23)c1 | 624 | 482 | 541 | 5.9
27 | C[C@@H]1C[C@H]2[C@@H]3\C=C(C)/C4=C/C5=C(C[C@]4(C)[C@H]3[C@@H](O)C[C@]2(C)[C@@]1(O)C(=O)COC(C)=O)C=N[N]5C6=CC=CC=C6 | 608 | 513 | 529 | 20.9
28 | c1cn2cc(-c3ccc4cn[nH]c4c3)nc(Nc3ccc(N4CCOCC4)cc3)c2n1 | 568 | 509 | 497 | 7.42
29 | CC(C)n1ncnc1-c1cn2c(n1)-c1ccc(O[C@@H](C)C(N)=O)cc1OCC2 | 582 | 364 | 491 | 1.05
30 | Cc1cc(-c2nc3cc(F)ccc3s2)ccc1NC(=O)[C@@H](N)CCCCN | 599 | 555 | 538 | 23.5
31 | O=C(O)c1ccc2c(c1)nc(Nc1cccc(Cl)c1)c1ccncc12 | 570 | 517 | 509 | 2.63
32 | CCCCc1oc2ccc(N[S+](C)(=O)[O-])cc2c1C(=O)c1ccc(OCCCN(CCCC)CCCC)cc1 | 563 | 477 | 486 | 7.42
33 | Oc1ccc([C@@H]2Oc3ccc(O)cc3[C@@H]3CCC[C@@H]32)cc1 | 535 | 485 | 500 | 13.2
34 | C/C(=C\c1csc(C)n1)[C@@H]1C[C@@H]2O[C@@H]2CCC[C@H](C)[C@H](O)[C@@H](C)C(=O)C(C)(C)[C@@H](O)CC(=O)O1 | 569 | 462 | 347 | 0.0132
35 | CN(C)C/C=C/C(=O)Nc1cccc(C(=O)Nc2cccc(Nc3ncc(Cl)c(-c4c[nH]c5ccccc45)n3)c2)c1 | 437 | 434 | 444 | 1.66
36 | O=C(/C=C/c1cccnc1)NCCCCC1CCN(C(=O)c2ccccc2)CC1 | 355 | 300 | 403 | 0.0209
37 | CC(C)(C)C1=CC(=C(NC(=O)C/2=C/NC3=C(C=CC=C3)C2=O)C=C1O)C(C)(C)C | 572 | 532 | 426 | 18.6
38 | COc1ccc(-c2ccc3c(N4CCOC[C@@H]4C)nc(N4CCOC[C@@H]4C)nc3n2)cc1CO | 485 | 431 | 387 | 0.417
39 | CC[C@]1(O)C[C@H]2CN(CCC3=C([NH]C4=C3C=CC=C4)[C@@](C2)(C(=O)OC)C5=C(OC)C=C6N(C)[C@H]7[C@](O)([C@H](OC(C)=O)[C@]8(CC)\C=C/CN9CC[C@]7([C@H]89)C6=C5)C(=O)OC)C1 | 560 | 504 | 444 | 3.32
40 | NC(=O)[C@@H](CCC(F)(F)F)N(Cc1ccc(-c2ncon2)cc1F)[S+](=O)([O-])c1ccc(Cl)cc1 | 476 | 441 | 469 | 20.9
41 | COc1cccc(-c2cc(F)ccc2C2Cc3nc(N)nc(C)c3C(=O)N2)n1 (centres undefined) | 413 | 379 | 403 | 0.59
42 | CCCCc1ccc2[nH]c(NC(=O)OC)nc2c1 | 511 | 480 | 438 | 0.148
43 | Nc1nccc(-c2ccc3noc(-c4ccc(Cl)cc4)c3c2)n1 | 345 | 344 | 354 | 0.263
44 | C=CCn1c(=O)c2cnc(Nc3ccc(N4CCN(C)CC4)cc3)nc2n1-c1cccc(C(C)(C)O)n1 | 531 | 452 | 393 | 1.86
45 | COC(=O)[C@@H]1[C@H]2C[C@H]3c4[nH]c5ccccc5c4CCN3C[C@@H]2CC[C@@H]1O | 458 | 443 | 442 | 18.6
46 | C[C@H](CN(C)C)Oc1nc(Nc2cc3cccc(Cl)c3cn2)cnc1C#N | 585 | 491 | 456 | 14.8
